Source: US20230026611A1, “ARYL HETEROCYCLIC COMPOUNDS AS Kv1.3 POTASSIUM SHAKER CHANNEL BLOCKERS” (D. E. Shaw Research, LLC, priority 2019, published 2023)

Assays:
hERG channel = hERG channel (Homo sapiens, UniProt Q12809); test: hERG electrophysiology, automated whole-cell patch clamp (Patchliner) in CHO-K1 cells stably expressing hERG
Protocol: Evaluation of hERG Activities
This assay is used to evaluate the disclosed compounds's inhibition activities against the hERG channel.
CHO-K1 cells stably expressing hERG were grown in Ham's F-12 Medium with glutamine containing 10% heat-inactivated FBS, 1% penicillin/streptomycin, hygromycin (100 μg/ml) and G418 (100 μg/ml). Cells were grown in culture flasks at 37° C. in a 5% CO2-humidified incubator.
The cells were bathed in an extracellular solution containing 140 mM NaCl, 4 mM KCl, 2 mM CaCl2), 1 mM MgCl2, 5 mM Glucose, 10 mM HEPES; pH adjusted to 7.4 with NaOH; 295-305 mOsm. The internal solution contained 50 mM KCl, 10 mM NaCl, 60 mM KF, 20 mM EGTA, 10 mM HEPES; pH adjusted to 7.2 with KOH; 285 mOsm. All compounds were dissolved in DMSO at 30 mM. Compound stock solutions were freshly diluted with external solution to concentrations of 30 nM, 100 nM, 300 nM, 1 μM, 3 μM, 10 μM, 30 μM and 100 μM. The highest content of DMSO (0.3%) was present in 100 μM.
The voltage protocol (see Table B) was designed to simulate voltage changes during a cardiac action potential with a 300 ms depolarization to +20 mV (analogous to the plateau phase of the cardiac action potential), a repolarization for 300 ms to −50 mV (inducing a tail current) and a final step to the holding potential of −80 mV. The pulse frequency was 0.3 Hz. Control (compound-free) and compound pulse trains for each compound concentration applied contained 70 pulses.
Whole-cell current recordings and compound application were enabled by means of an automated patch clamp platform Patchliner (Nanion). EPC 10 patch clamp amplifier (HEKA) along with Patchmaster software (HEKA Elektronik Dr. Schulze GmbH) was used for data acquisition. Data were sampled at 10 kHz without filtering. Increasing compound concentrations were applied consecutively to the same cell without washouts in between.
AUC and PEAK values were obtained with Patchmaster (HEKA Elektronik Dr. Schulze GmbH). To determine IC50 the last single pulse in the pulse train corresponding to a given compound concentration was used. Obtained AUC and PEAK values in the presence of compound were normalized to control values in the absence of compound. Using Origin (OridinLab), IC50 was derived from data fit to Hill equation: Icompound/control=(100−A)/(1+([compound]/IC50)nH)+A, where IC50 is the concentration at which current inhibition is half-maximal, [compound] is the applied compound concentration, A is the fraction of current that is not blocked and nH is the Hill coefficient.

Kv1.3 potassium channel = target: T1, Kv1.3 potassium channel (Homo sapiens, UniProt P22001); test: Kv1.3 potassium channel blocker activity, automated whole-cell patch clamp (Patchliner) in CHO-K1 cells stably expressing Kv1.3; type: cell-based; conditions: CHO-K1 cells stably expressing Kv1.3; patch clamp, current inhibition; read-out: Kv1.3 IC50
T1 construct: expressed in transfected cells
Summary of the method: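 CHO-K1 cells stably expressing Kv1.3 were recorded by whole-cell patch clamp, with 100 ms depolarizing pulses from −90 mV holding to +40 mV at 0.1 Hz and 10-second breaks between pulse trains. P/4 online leak subtraction was applied. Compound incubation before the next train was ≤10 seconds, and peak current inhibition was read during equilibration.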

T1 sequence (P22001 whole entry): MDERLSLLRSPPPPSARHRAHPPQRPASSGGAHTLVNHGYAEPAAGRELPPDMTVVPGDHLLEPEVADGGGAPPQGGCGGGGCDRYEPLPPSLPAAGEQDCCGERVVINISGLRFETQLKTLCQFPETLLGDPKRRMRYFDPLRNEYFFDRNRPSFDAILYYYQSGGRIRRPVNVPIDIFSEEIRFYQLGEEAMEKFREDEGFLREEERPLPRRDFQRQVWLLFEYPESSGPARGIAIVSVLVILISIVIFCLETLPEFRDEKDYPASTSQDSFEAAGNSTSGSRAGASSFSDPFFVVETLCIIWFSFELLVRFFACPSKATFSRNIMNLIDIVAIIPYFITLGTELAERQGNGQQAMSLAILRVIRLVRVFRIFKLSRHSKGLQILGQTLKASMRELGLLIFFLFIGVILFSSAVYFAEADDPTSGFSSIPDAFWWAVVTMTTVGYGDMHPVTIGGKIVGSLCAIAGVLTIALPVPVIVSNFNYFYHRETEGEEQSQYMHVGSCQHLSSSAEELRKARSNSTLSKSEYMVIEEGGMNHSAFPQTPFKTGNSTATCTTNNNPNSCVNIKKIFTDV
hERG channel, sequence (Q12809 whole entry): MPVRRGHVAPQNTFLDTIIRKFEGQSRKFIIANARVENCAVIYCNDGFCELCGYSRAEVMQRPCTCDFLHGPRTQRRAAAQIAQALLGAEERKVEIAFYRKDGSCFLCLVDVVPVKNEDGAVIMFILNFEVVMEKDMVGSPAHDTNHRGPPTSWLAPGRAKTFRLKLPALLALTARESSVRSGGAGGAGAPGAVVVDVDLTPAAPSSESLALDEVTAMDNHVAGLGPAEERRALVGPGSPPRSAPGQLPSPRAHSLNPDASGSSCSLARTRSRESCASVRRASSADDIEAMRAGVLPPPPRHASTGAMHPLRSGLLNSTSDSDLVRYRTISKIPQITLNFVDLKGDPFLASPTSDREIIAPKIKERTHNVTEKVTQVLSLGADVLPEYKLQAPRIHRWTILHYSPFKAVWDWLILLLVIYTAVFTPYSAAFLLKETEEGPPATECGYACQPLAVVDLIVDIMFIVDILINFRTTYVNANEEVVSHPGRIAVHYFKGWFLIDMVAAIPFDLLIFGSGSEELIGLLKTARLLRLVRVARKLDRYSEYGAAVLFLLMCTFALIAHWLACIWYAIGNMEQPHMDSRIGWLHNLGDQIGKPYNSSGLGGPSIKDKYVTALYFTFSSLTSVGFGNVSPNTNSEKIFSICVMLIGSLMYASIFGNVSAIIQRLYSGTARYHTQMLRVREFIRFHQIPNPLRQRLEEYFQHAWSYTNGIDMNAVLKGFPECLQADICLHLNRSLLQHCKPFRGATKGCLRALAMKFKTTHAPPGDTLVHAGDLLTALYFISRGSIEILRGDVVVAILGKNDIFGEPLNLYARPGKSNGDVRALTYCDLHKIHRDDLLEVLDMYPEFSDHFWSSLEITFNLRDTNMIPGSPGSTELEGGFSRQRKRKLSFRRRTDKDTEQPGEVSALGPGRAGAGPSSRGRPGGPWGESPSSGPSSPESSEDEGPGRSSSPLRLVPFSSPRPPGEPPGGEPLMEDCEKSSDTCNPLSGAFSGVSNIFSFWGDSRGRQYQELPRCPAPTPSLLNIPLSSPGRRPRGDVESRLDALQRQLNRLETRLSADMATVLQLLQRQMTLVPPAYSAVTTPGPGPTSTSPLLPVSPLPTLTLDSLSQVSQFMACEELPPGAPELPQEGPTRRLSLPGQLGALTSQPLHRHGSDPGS

Row | IC50 (Kv1.3 potassium channel) [µM] | Compound | IC50 (hERG channel) [µM]
1 | < 1 | CS(=O)(=O)NC[C@@H]1C[C@H](c2c(O)ccc(Cl)c2Cl)CCN1 (single isomer, unassigned) [Compound 107] | > 30
2 | < 1 | NC(=O)C[C@@H]1C[C@H](c2c(O)ccc(Cl)c2Cl)CCN1 (single isomer, unassigned) [Compound 109] | > 30
3 | < 1 | O=C(NC1CNC1)[C@H]1CC[C@H](c2c(O)ccc(Cl)c2Cl)N1 (single isomer, unassigned) [Compound 118] | > 100
4 | < 1 | O=C(NC1CNC1)[C@@H]1CN[C@@H](c2c(O)ccc(Cl)c2Cl)C1 (single isomer, unassigned) [Compound 122] | > 100
5 | < 1 | O=C([C@H](O)CO)N1CCC(c2c(O)ccc(Cl)c2Cl)CC1 [Compound 2, (2R)-1-[4-(2,3-dichloro-6-hydroxyphenyl)piperidin-1-yl]-2,3-dihydroxypropan-1-one] | > 30
6 | < 1 | O=S(=O)(NCC1CC(c2c(O)ccc(Cl)c2Cl)CCN1)c1cccnc1 [Compound 6, N-(2R,4S)-rel-[[4-(2,3-dichloro-6-hydroxyphenyl)piperidin-2-yl]methyl]pyridine-3-sulfonamide] | > 30
7 | < 1 | NC1CCN(c2cc(Cl)c(Cl)cc2O)CC1 [Compound 8, 2-(4-aminopiperidin-1-yl)-4,5-dichlorophenol] | < 30
8 | < 1 | CN(C)C1CCN(c2cc(Cl)c(Cl)cc2O)CC1 [Compound 23, 4,5-dichloro-2-[4-(dimethylamino)piperidin-1-yl]phenol] | < 30
9 | < 1 | CNC1CCN(c2cc(Cl)c(Cl)cc2O)CC1 [Compound 24, 4,5-dichloro-2-[4-(methylamino)pip-eridin-1-yl]phenol] | < 30
10 | < 1 | CC1(N)CCN(c2cc(Cl)c(Cl)cc2O)CC1 [Compound 25, 2-(4-amino-4-methylpiperidin-l-yl)-4,5-dichlorophenol] | < 30
11 | < 10 | OCC1CC(c2cc(Cl)c(Cl)cc2O)CCN1 (stereo not shown) [Compound 27, 4,5-dichloro-2-[2-(hydroxymethyl)piperidin-4-yl]phenol] | > 30
12 | < 1 | NCC1CCN(c2cc(Cl)c(Cl)cc2O)CC1 [Compound 28, 2-[4-(aminomethyl)pip-eridin-1-yl]-4,5-dichlorophenol] | < 30
13 | < 1 | NCC1CN(c2cc(Cl)c(Cl)cc2O)C1 [Compound 31, 2-(3-(aminomethyl)aze-tidin-1-yl)-4,5-dichlorophenol] | < 30
14 | < 10 | OCC1CC(c2cc(Cl)c(Cl)cc2O)CN1 (stereo not shown) [Compound 36, 4,5-dichloro-2-(5-(hydroxymethyl)pyrrolidin-3-yl)phenol] | < 30
15 | < 1 | Oc1cc(Cl)c(Cl)cc1C1CCCNCC1 (stereo not shown) [Compound 39, 2-(azepan-4-yl)-4,5-dichlorophenol] | < 30
16 | < 1 | Oc1cc(Cl)c(Cl)cc1C1CCNC(C2CC2)C1 (stereo not shown) [Compound 43, 4,5-dichloro-2-(2-cyclopropylpiperidin-4-yl)phenol] | < 30
17 | < 1 | NC(=O)N1CCC(c2c(O)cc(Cl)c(Cl)c2Cl)CC1 [Compound 60, 4-(2,3,4-trichloro-6-hydroxyphenyl)piperidine-1-carboxamide] | < 30

Row | IC50 (Kv1.3 potassium channel) [µM] | Compound | IC50 (hERG channel) [µM]
18 | < 1 | NC(=O)C1CC(c2c(O)cc(Cl)c(Cl)c2Cl)CCN1 (stereo not shown) [Compound 61, 4-(2,3,4-trichloro-6-hydroxyphenyl)piperidine-2-carboxamide] | < 30
19 | < 1 | CNC(=O)C1CC(c2c(O)ccc(Cl)c2Cl)CCN1 (stereo not shown) [Compound 72, 4-(2,3-dichloro-6-hydroxyphenyl)-N-methylpiperidine-2-carboxamide] | > 30
20 | < 1 | CC(=O)NCC1CC(c2c(O)ccc(Cl)c2Cl)CCN1 (stereo not shown) [Compound 79, N-[[4-(2,3-dichloro-6-hydroxyphenyl)piperidin-2-yl]methyl]acetamide] | > 30
21 | < 1 | O=C([C@H]1CCNC1)N1CCC(c2c(O)cc(Cl)c(Cl)c2Cl)CC1 [Compound 91, 3,4,5-trichloro-2-[1-[(3S)-pyrrolidine-3-carbonyl]piperidin-4-yl]phenol] | < 30
22 | < 1 | O=C(CO)N1CCC(c2c(O)cc(Cl)c(Cl)c2Cl)CC1 [Compound 93, 2-hydroxy-1-[4-(2,3,4-trichloro-6-hydroxyphenyl)piperidin-1-yl]ethan-1-one] | < 30
23 | < 1 | O=S(=O)(NCC1CC(c2c(O)ccc(Cl)c2Cl)CCN1)c1ccccc1 [Compound 94, N-(2R,4S)-rel-[[4-(2,3-dichloro-6-hydroxyphenyl)piperidin-2-yl]methyl]benzenesulfonamide] | < 30
24 | < 1 | NCC(=O)N1CCC(c2c(O)cc(Cl)c(Cl)c2Cl)CC1 [Compound 98, 2-amino-1-[4-(2,3,4-trichloro-6-hydroxyphenyl)piperidin-1-yl]ethan-1-one] | < 30
25 | < 1 | Nc1nnc(C2CC(c3c(O)ccc(Cl)c3Cl)CCN2)o1 [Compound 99, (2R,4S)-rel-2-(2-(5-amino-1,3,4-oxadiazol-2-yl)piperidin-4-yl)-3,4-dichlorophenol] | > 30
26 | < 1 | CS(=O)(=O)NCC1CC(c2c(O)ccc(Cl)c2Cl)CCN1 [Compound 100, (2R,4S)-rel-N-[[4-(2,3-dichloro-6-hydroxyphenyl)piperidin-2-yl]methyl]methanesulfonamide] | > 30
27 | < 1 | NC(=O)CC1CC(c2c(O)ccc(Cl)c2Cl)CCN1 [Compound 101, 2-[(2R,4S)-rel-4-(2,3-dichloro-6-hydroxyphenyl)piperidin-2-yl]acetamide] | > 30
28 | < 1 | NC(=O)NCC1CC(c2c(O)ccc(Cl)c2Cl)CCN1 [Compound 102, (2R,4S)-rel-[4-(2,3-dichloro-6-hydroxyphenyl)piperidin-2-yl]methylurea] | > 30
29 | < 1 | O=C(NCC1CC(c2c(O)ccc(Cl)c2Cl)CCN1)C1COC1 [Compound 104, (2R,4S)-rel-N-[[4-(2,3-dichloro-6-hydroxyphenyl)piperidin-2-yl]methyl]oxetane-3-carboxamide] | > 30
30 | < 1 | O=C(NCC1CC(c2c(O)ccc(Cl)c2Cl)CCN1)C1CC1 [Compound 106, (2R,4S)-rel-N-[[4-(2,3-dichloro-6-hydroxyphenyl)piperidin-2-yl]methyl]cyclopropane carboxamide] | > 30
31 | < 1 | O=S1(=O)CCCN1CC1CC(c2c(O)ccc(Cl)c2Cl)CCN1 (stereo not shown) [Compound 112, 2-[[4-(2,3-dichloro-6-hydroxyphenyl)piperidin-2-yl]methyl]-1,2-thiazolidine-1,1-dione] | < 30
32 | < 1 | Oc1ccc(Cl)c(Cl)c1C1CCNC(c2cn[nH]c2)C1 (stereo not shown) [Compound 116, 3,4-dichloro-2-[2-(1H-pyrazol-4-yl)piperidin-4-yl]phenol] | > 30
33 | < 10 | O=C(NC1CNC1)C1CCC(c2c(O)ccc(Cl)c2Cl)NC1 (stereo not shown) [Compound 125, N-(azetidin-3-yl)-6-(2,3-dichloro-6-hydroxyphenyl)piperidine-3-carboxamide] | > 100
34 | < 10 | O=C(NC1CNC1)C1CCNC(c2c(O)ccc(Cl)c2Cl)C1 (stereo not shown) [Compound 126, N-(azetidin-3-yl)-2-(2,3-dichloro-6-hydroxyphenyl)piperidine-4-carboxamide] | > 30

Row | Compound | IC50 (Kv1.3 potassium channel) [µM] | IC50 (hERG channel) [µM]
35 | Oc1cc(Cl)c(Cl)cc1C1CCNCC1 [Compound 3, 4,5-dichloro-2-(piperidin-4-yl)phenol] | < 1 | < 30
36 | CN1CCC(c2cc(Cl)c(Cl)cc2O)CC1 [Compound 4, 4,5-dichloro-2-(1-methylpiperidin-4-yl)phenol] | < 1 | < 30
37 | Oc1cc(Cl)c(Cl)cc1N1CCNCC1 [Compound 5, 4,5-dichloro-2-(piperazin-1-yl)phenol] | < 10 | < 30
38 | Oc1cc(Cl)c(Cl)cc1C1=CCNCC1 [Compound 9, 4,5-dichloro-2-(1,2,3,6-tetrahydropyridin-4-yl)phenol] | < 1 | < 30
39 | Cc1cc(O)c(C2CCNCC2)cc1Cl [Compound 12, 4-chloro-5-methyl-2-(piperidin-4-yl)phenol] | < 10 | < 30
40 | Oc1cc(Cl)c(Cl)cc1C1CCCNC1 (stereo not shown) [Compound 16, 4,5-dichloro-2-(piperidin-3-yl)phenol] | < 1 | < 30
41 | Oc1ccc2ccccc2c1C1CCNCC1 [Compound 18, 1-(piperidin-4-yl)naphthalen-2-ol] | < 1 | < 30
42 | Oc1cc(Cl)c(Cl)cc1C1CCNC1 (stereo not shown) [Compound 21, 4,5-dichloro-2-(pyrrolidin-3-yl)phenol] | < 1 | < 30
43 | Oc1cc(Cl)c(Cl)cc1C1CCCCNC1 (stereo not shown) [Compound 40, 2-(azepan-3-yl)-4,5-dichlorophenol] | < 10 | < 30
44 | Oc1cc(Cl)c(Cl)c(Cl)c1C1CCNCC1 [Compound 44, 3,4,5-trichloro-2-(piperidin-4-yl)phenol] | < 1 | < 30
45 | Oc1c(C2CCNCC2)cc(Cl)c(Cl)c1Cl [Compound 54, 2,3,4-trichloro-6-(piperidin-4-yl)phenol] | < 10 | < 30
46 | Oc1ccc(Cl)c(Cl)c1C1CCNCC1 [Compound 55, 3,4-dichloro-2-(piperidin-4-yl)phenol] | < 1 | < 30
47 | Oc1cc(Cl)cc(Cl)c1C1CCNCC1 [Compound 57, 3,5-dichloro-2-(piperidin-4-yl)phenol] | < 1 | < 30
